Reference: publication PMC5557901, “Cell surface binding, uptaking and anticancer activity of L-K6, a lysine/leucine-rich peptide, on human breast cancer MCF-7 cells” (Scientific Reports, 2017)
Like-named read-outs stand apart in the source and are kept apart here. Peptide text beside a SMILES is read from it.

Key:
Assay type in all cases: cell-based, human
[1] = test system: various cancer cell lines; experiment: MTT cytotoxicity assay, various cancer cell lines; conditions: Fig. 1a
From the text: Eleven human cancer cell lines (including MCF-7 breast carcinoma, Bcap-37 breast carcinoma, MDA-MB-231 breast adenocarcinoma, HeLa cervical carcinoma, BGC-823 gastric carcinoma, A375 melanoma, NCI-H446 small cell lung carcinoma, HO-8910 ovarian carcinoma, SMMC-7721 hepatocellular carcinoma, LK-2 lung squamous cells carcinoma, and BEL-7402 hepatocellular carcinoma) were obtained from the CBCAS (Cell Bank of the Chinese Academy of Sciences, Shanghai, China). Human HaCaT keratinocytes were obtained from KeyGEN Biotech (Nanjing, China). Cells were routinely cultured in RPMI 1640 or L15 or DMEM containing 10% neonatal bovine serum (NBS) or fetal bovine serum (FBS), 1% l-glutamine, 1% sodium pyruvate, 50 U/mL penicillin and 50 μg/mL streptomycin. The cells were maintained at 37 °C in a humidified atmosphere of 5% CO2.
Cell viability was detected by MTT assay. The cells were seeded at 5 × 10^3 cells/well in 96-well plates 24 h before the peptide treatment. After 1, 6, 24, or 48 h of incubation with various concentrations of peptides (20–100 µM), 10 μL of the 5 mg/mL MTT solution was added to each well and incubated for additional 4 h. The purple-blue MTT formazan precipitate was dissolved in 150 μL of DMSO. The absorbance was determined using a microplate reader at 490 nm. […] The data were expressed as a percentage of the inhibition rate for the viable cells. […]

MCF-7 cells [2] = experiment: Cellular uptake by confocal microscopy, MCF-7 cells; conditions: FITC-labeled L-K6, confocal microscopy, after 5 min of peptide exposure
Experimental: (§1) MCF-7 or HaCaT cells were incubated with various concentrations of FITC-labeled L-K6 for 5, 10 or 60 min. Myelin and other lipophilic areas on cell membrane were stained with the red-orange fluorescent tracker DiI. The FITC-labeled peptides were traced and recorded at each time point using confocal microscopy.

HaCaT cells [3] = experiment: Cellular uptake by confocal microscopy, HaCaT cells; conditions: FITC-labeled L-K6, confocal microscopy, 1-hour exposure
Experimental: as §1

MCF-7 cells [4] = test system: MCF-7 cells
Experimental: (§2) Cell viability was detected by MTT assay. The cells were seeded at 5 × 10^3 cells/well in 96-well plates 24 h before the peptide treatment. After 1, 6, 24, or 48 h of incubation with various concentrations of peptides (20–100 µM), 10 μL of the 5 mg/mL MTT solution was added to each well and incubated for additional 4 h. The purple-blue MTT formazan precipitate was dissolved in 150 μL of DMSO. The absorbance was determined using a microplate reader at 490 nm. The experiments were performed in triplicate. The data were expressed as a percentage of the inhibition rate for the viable cells. For the thermo-sensitivity test, MCF-7 cells were treated with L-K6 at 4 °C or 37 °C for 30 min and then subjected to the MTT assay. For energy-dependent assay, the L-K6-treated MCF-7 cells were pre-incubated with 40 μM NaN3 for 30 min[39] and then subjected to the MTT assay. All experiments had been performed in triplicate.

HaCaT cells [5] = experiment: MTT cytotoxicity assay, non-cancerous HaCaT cells; conditions: 1-hour peptide exposure
Experimental: as §2

Structure (SMILES)	Cytotoxicity on cancer cell lines relative to L-K6 (MTT) [1]	Cellular uptake into MCF-7 cells (MCF-7 cells [2])	Cellular uptake into HaCaT cells (HaCaT cells [3])	IC50 (MCF-7 cells [4]; 1 h)	IC50 (MCF-7 cells [4]; 6 h)	IC50 (MCF-7 cells [4]; 24 h)	IC50 (MCF-7 cells [4]; 48 h)	Toxicity against normal HaCaT cells (MTT) (HaCaT cells [5])
CC[C@H](C)[C@H](N)C(=O)N[C@@H](CCCCN)C(=O)N[C@@H](CCCCN)C(=O)N[C@H](C(=O)N[C@H](C(=O)N[C@@H](CO)C(=O)N[C@@H](CCCCN)C(=O)N[C@H](C(=O)N[C@@H](CCCCN)C(=O)N[C@@H](CCCCN)C(=O)N[C@@H](CC(C)C)C(=O)N[C@@H](CC(C)C)C(N)=O)[C@@H](C)CC)C(C)C)[C@@H](C)CC [L-K5 V1] (H-IKKIVSKIKKLL-NH2)	dramatically weakened this cytotoxicity							
CC[C@H](C)[C@H](N)C(=O)N[C@@H](CCCCN)C(=O)N[C@@H](CCCCN)C(=O)N[C@H](C(=O)N[C@H](C(=O)N[C@@H](CO)C(=O)N[C@@H](CCCCN)C(=O)N[C@H](C(=O)N[C@@H](CCCCN)C(=O)N[C@@H](CCCCN)C(=O)N[C@@H](CC(C)C)C(=O)N[C@@H](CC(C)C)C(=O)N[C@@H](CCCCN)C(N)=O)[C@@H](C)CC)C(C)C)[C@@H](C)CC [L-K6 V1] (H-IKKIVSKIKKLLK-NH2)	dramatically weakened this cytotoxicity							
CC[C@H](C)[C@H](N)C(=O)N[C@@H](CCCCN)C(=O)N[C@@H](CCCCN)C(=O)N[C@H](C(=O)N[C@@H](CC(C)C)C(=O)N[C@@H](CO)C(=O)N[C@@H](CCCCN)C(=O)N[C@H](C(=O)N[C@@H](CCCCN)C(=O)N[C@@H](CCCCN)C(=O)N[C@@H](CC(C)C)C(=O)N[C@@H](CC(C)C)C(=O)N[C@@H](CCCCN)C(N)=O)[C@@H](C)CC)[C@@H](C)CC [L-K6] (H-IKKILSKIKKLLK-NH2)		rapidly internalize into cells	negligible cellular uptake	38 µM	34 µM	31 µM	23 µM	minimum toxicity
